For data set [1], the system named is CHO-hNTS1R cells. Briefly: Confocal microscopy at live CHO-hNTS1R cells. Particulars: for unspecific binding: 22–25 °C, in the presence of 1 (100-fold excess). The format is cell-based, Chinese hamster.
Data set [2] can be described thus: Stability in PBS, RP-HPLC analysis. The format is physicochemical. As to conditions: pH 7.4, 22 °C, up to 48 h.

SMILES strings stand for the structures.

Consider `CC[C@H](C)[C@H](NC(=O)[C@H](Cc1ccc(O)cc1)NC(=O)[C@@H]1CCCN1C(=O)[C@H](CCCNC(=N)N)NC(=O)[C@@H](N)CCCNC(=N)NC(=O)NCCOCCOCC[n+]1c(C)cc(/C=C/C=C/c2ccc(N(C)C)cc2)cc1C)C(=O)N[C@@H](CC(C)C)C(=O)O` [compound 14], for which the unspecific binding entry in data set [1] is “very low”. Further, the stability entry in data set [2] is “minor decomposition after incubation times >24 h”.

In the case of `CC[C@H](C)[C@H](NC(=O)[C@H](Cc1ccc(O)cc1)NC(=O)[C@@H]1CCCN1C(=O)[C@H](CCCNC(=N)NC(=O)NCCOCCOCCNC(=O)CCCCCN1/C(=C/C=C/C=C/C2=[N+](CCCCS(=O)(=O)[O-])c3ccccc3C2(C)C)C(C)(C)c2cc(S(=O)(=O)O)ccc21)NC(=O)[C@@H](N)CCCNC(=N)N)C(=O)N[C@@H](CC(C)C)C(=O)O` [compound 17], the stability result in data set [2] was “excellent stabilities”.

Take `CC[C@H](C)[C@H](NC(=O)[C@H](Cc1ccc(O)cc1)NC(=O)[C@@H]1CCCN1C(=O)[C@H](CCCNC(=N)N)NC(=O)[C@@H](N)CCCNC(=N)NC(=O)NCCCCNC(=O)CCCCCN1\C(=C/C=C/C=C/C2=[N+](CCCCS(=O)(=O)[O-])c3ccccc3C2(C)C)C(C)(C)c2cc(S(=O)(=O)O)ccc21)C(=O)N[C@@H](CC(C)C)C(=O)O` [compound 6, N-(N-[4-{N-(6-[3,3-Dimethyl-6-sulfonato-2-{5-(3,3-dimethyl-1-[4-sulfonatobutyl]-3H-indol-1-ium-2-yl)penta-2,4-dien-1-ylidene}indolin-1-yl]hexanoyl)amino}butyl]aminocarbonyl)-Arg-Arg-Pro-Tyr-Ile-Leu bis(hydrotrifluoroacetate)]: the unspecific binding result in data set [1] is recorded as “very low”. Further, the stability result in data set [2] is reported as “excellent stabilities”.

With `CCNC(=O)CCCCCN1/C(=C/C=C/C=C/C2=[N+](CCCCS(=O)(=O)[O-])c3ccccc3C2(C)C)C(C)(C)c2cc(S(=O)(=O)O)ccc21` [compound 20], the cellular uptake result in data set [1] (200 nM, 22-25 °C, CHO-hNTS1R cells) was “no uptake”.

For `CC[C@H](C)[C@H](NC(=O)[C@H](Cc1ccc(O)cc1)NC(=O)[C@@H]1CCCN1C(=O)[C@H](CCCNC(=N)N)NC(=O)[C@@H](N)CCCNC(=N)NC(=O)NCCOCCOCCNC(=O)CCCCCN1\C(=C/C=C/C=C/C2=[N+](CCCCS(=O)(=O)[O-])c3ccccc3C2(C)C)C(C)(C)c2ccccc21)C(=O)N[C@@H](CC(C)C)C(=O)O` [compound 11], the unspecific binding entry in data set [1] is given as “very low”. The stability entry in data set [2] was “excellent stabilities”.

(Values after paper PMC6956362 (ACS Medicinal Chemistry Letters, 2019).)
